Results published in patent US20230002336A1, “MrgprX2 Antagonists and Uses Thereof” (Dermira, Inc., priority 2019, published 2023).

These molecules were tested against T1, Human MrgprX2 (Homo sapiens, UniProt Q96LB1) (assay: FLIPR intracellular calcium mobilization antagonist assay in recombinant hMrgpMRGPRX2 expressing cells). Settings: antagonist activity, read-out: Human MrgprX2 Antagonist pIC50 (converted).
T1 construct: expressed in transfected cells; host or cells: recombinant cells
T1 sequence (Q96LB1 1-330): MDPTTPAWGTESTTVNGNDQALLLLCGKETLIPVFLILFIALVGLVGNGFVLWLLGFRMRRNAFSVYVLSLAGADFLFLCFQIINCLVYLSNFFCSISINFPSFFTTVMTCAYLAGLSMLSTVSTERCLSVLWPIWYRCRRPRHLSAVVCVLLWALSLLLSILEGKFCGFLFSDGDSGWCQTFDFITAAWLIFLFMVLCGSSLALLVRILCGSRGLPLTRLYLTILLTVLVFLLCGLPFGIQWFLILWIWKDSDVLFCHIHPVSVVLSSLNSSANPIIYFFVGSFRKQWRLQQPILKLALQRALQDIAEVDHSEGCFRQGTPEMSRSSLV
Format: cell-based
Description: [Worded in the source for another species; this species is reported under the same test.] The assays used to determine potencies are functional read-out looking at intracellular calcium mobilization using the FLIPR™ technology. In these FLIPR assays, we test the identified compounds using recombinant cellular systems expressing mouse MrgprB2, mouse MrgprA1, gerbil MrgpMRGPRX2 orthologue, Chinese hamster MrgpMRGPRX2 orthologue and cynomolgus monkey MrgpMRGPRX2 orthologue, respectively for orthologue activity.

| Structure (SMILES) | IC50 [nM] |
| --- | --- |
| CCN(CC(C)(O)C(F)(F)F)C(=O)Nc1nnc(Cc2cccc(F)c2)s1 (single isomer, unassigned) [Example E52, 1-ethyl-3-[5-[(3-fluorophenyl)methyl]-1,3,4-thiadiazol-2-yl]-1-(3,3,3-trifluoro-2-hydroxy-2-methyl-propyl)urea] | 50.1 |
| Cc1cc(F)cc(Cc2nnc(NC(=O)N(C)C[C@@](C)(O)C(F)(F)F)s2)c1 [Example E57] | 85.1 |
| CN(CC(C)(O)C(F)(F)F)C(=O)Nc1nnc(Cc2cc(F)cc(F)c2)s1 (stereo not drawn) [Example E33] | 15.8 |
| CC(C)C(=O)Nc1nnc(Cc2cc(F)ccc2F)s1 [Example E05] | 2510 |
| CCN(CC(C)(C)O)C(=O)Nc1nnc(Cc2cc(F)cc(F)c2)s1 [Example E38] | 39.8 |
| CC(C)C(=O)Nc1nnc(Cc2ccc(F)cc2)s1 [Example E02] | 7940 |
| CC(C)NC(=O)c1nnc(Cc2cc(F)cc(F)c2)s1 [Example E58, 5-[(3,5-difluorophenyl)methyl]-N-isopropyl-1,3,4-thiadiazole-2-carboxamide] | 3160 |
| CN(CC1CCCO1)C(=O)Nc1nnc(Cc2cc(F)cc(F)c2)s1 (stereo not drawn) [Example E26] | 1260 |
| O=C(Nc1nnc(Cc2cc(F)cc(F)c2)s1)N1CCCC1 [Example E25] | 7940 |
| CN(C[C@@H](O)C(F)(F)F)C(=O)Nc1nnc(Cc2cc(F)cc(Cl)c2)s1 [Example E47] | 135 |
| C[C@@H](O)CN(C)C(=O)Nc1nnc(Cc2cc(F)cc(F)c2)s1 [Example E15] | 3980 |
| CCN(C[C@H](C)O)C(=O)Nc1nnc(Cc2cc(F)cc(F)c2)s1 [Example E10] | 251 |
| CCN(CC(C)(C)O)C(=O)Nc1nnc(Cc2cc(C)cc(F)c2)s1 [Example E46] | 372 |
| O=C(Nc1nnc(Cc2cc(F)cc(F)c2)s1)N1CCC(C(F)(F)F)C1 (stereo not drawn) [Example E29] | 631 |
| CCN(C[C@H](C)O)C(=O)Nc1nnc(Cc2cccc(F)c2)s1 [Example E11] | 3160 |
| CN(C[C@](C)(O)C(F)(F)F)C(=O)Nc1nnc(Cc2cc(F)cc(F)c2)s1 [Example E54, 3-[5-[(3,5-difluorophenyl)methyl]-1,3,4-thiadiazol-2-yl]-1-methyl-1-[(2S)-3,3,3-trifluoro-2-hydroxy-2-methyl-propyl]urea] | 126 |
| CC1(C(=O)Nc2nnc(Cc3cc(F)cc(F)c3)s2)CCOCC1 [Example E07] | 1000 |
| CC1(C(=O)Nc2nnc(Cc3cc(F)cc(F)c3)s2)CCOC1 (stereo not drawn) [Example E08] | 2000 |
| CCN(CC(C)(C)O)C(=O)Nc1nnc(Cc2cccc(F)c2)s1 [Example E39] | 724 |

| Structure (SMILES) | IC50 [nM] |
| --- | --- |
| CN(CC1(O)CC1)C(=O)Nc1nnc(Cc2cc(F)cc(F)c2)s1 [Example E31] | 1260 |
| CCN(C[C@H](C)O)C(=O)Nc1nnc(Cc2ccc(F)c(Cl)c2)s1 [Example E35] | 794 |
| CCN(C[C@@H](O)C(F)(F)F)C(=O)Nc1nnc(Cc2cc(C)cc(F)c2)s1 [Example E43] | 69.2 |
| CN(CC(C)(C)O)C(=O)Nc1nnc(Cc2cc(F)cc(F)c2)s1 [Example E20] | 200 |
| O=C(Nc1nnc(Cc2cc(F)cc(F)c2)s1)N1CC[C@H](O)C1 [Example E28] | 5010 |
| CCN(C[C@H](C)O)C(=O)Nc1nnc(Cc2cccc(C)c2)s1 [Example E21] | 7940 |
| CCN(C[C@H](C)O)C(=O)Nc1nnc(Cc2cc(F)cc(Cl)c2)s1 [Example E24] | 100 |
| CN(C[C@@](C)(O)C(F)(F)F)C(=O)Nc1nnc(Cc2cc(F)cc(F)c2)s1 [Example E55] | 10 |
| CC(C)C(=O)Nc1nnc(Cc2cc(F)cc(F)c2)s1 [Example E03] | 251 |
| CC(C)C(=O)Nc1nnc(Cc2cccc(F)c2)s1 [Example E01, N-[5-[(3-fluorophenyl)methyl]-1,3,4-thiadiazol-2-yl]-2-methyl-propanamide] | 2510 |
| CN(CC(C)(O)C(F)(F)F)C(=O)Nc1nnc(Cc2cccc(F)c2)s1 (single isomer, unassigned) [Example E50, 3-[5-[(3-fluorophenyl)methyl]-1,3,4-thiadiazol-2-yl]-1-methyl-1-(3,3,3-trifluoro-2-hydroxy-2-methyl-propyl)urea] | 295 |
| CCN(CC1(O)CC1)C(=O)Nc1nnc(Cc2cc(F)cc(F)c2)s1 [Example E30] | 79.4 |
| CC(C)C(=O)Nc1nnc(Cc2ccc(F)c(F)c2)s1 [Example E06] | 1580 |
| CCN(C[C@@H](O)C(F)(F)F)C(=O)Nc1nnc(Cc2cc(Cl)cc(Cl)c2)s1 [Example E49] | 38 |
| CCN(C[C@@H](O)C(F)(F)F)C(=O)Nc1nnc(Cc2cc(F)cc(F)c2)s1 [Example E23] | 7.94 |
| CCN(C[C@H](C)O)C(=O)Nc1nnc(Cc2cc(C)cc(F)c2)s1 [Example E22] | 794 |
| CCN(C[C@H](C)O)C(=O)Nc1nnc(Cc2ccc(F)c(F)c2)s1 [Example E13] | 2000 |
| CCN(C[C@H](C)O)C(=O)Nc1nnc(Cc2cccc(F)c2F)s1 [Example E09, 3-[5-[(2,3-difluorophenyl)methyl]-1,3,4-thiadiazol-2-yl]-1-ethyl-1-[(2S)-2-hydroxypropyl]urea] | 1580 |
| CN(CC(C)(O)C(F)(F)F)C(=O)Nc1nnc(Cc2cccc(F)c2)s1 (stereo not drawn) [Example E40, 3-[5-[(3-fluorophenyl)methyl]-1,3,4-thiadiazol-2-yl]-1-methyl-1-(3,3,3-trifluoro-2-hydroxy-2-methyl-propyl)urea] | 316 |

| Structure (SMILES) | IC50 [nM] |
| --- | --- |
| CN(CC(C)(C)O)C(=O)Nc1nnc(Cc2cc(Cl)cc(Cl)c2)s1 [Example E44] | 162 |
| CCN(C[C@H](C)O)C(=O)Nc1nnc(Cc2cc(Cl)cc(Cl)c2)s1 [Example E32] | 158 |
| CN(C[C@@](C)(O)C(F)(F)F)C(=O)Nc1nnc(Cc2cc(F)cc(Cl)c2)s1 [Example E56] | 16.2 |
| O=C(Nc1nnc(Cc2cc(F)cc(F)c2)s1)N1CCC[C@@H]1CO [Example E16] | 2000 |
| CCN(CC(C)(O)C(F)(F)F)C(=O)Nc1nnc(Cc2cccc(F)c2)s1 (single isomer, unassigned) [Example E53, 1-ethyl-3-[5-[(3-fluorophenyl)methyl]-1,3,4-thiadiazol-2-yl]-1-(3,3,3-trifluoro-2-hydroxy-2-methyl-propyl)urea] | 3390 |
| CCN(C[C@H](C)O)C(=O)Nc1nnc(Cc2cc(Cl)ccc2F)s1 [Example E34] | 3980 |
| CCN(CC(C)(O)C(F)(F)F)C(=O)Nc1nnc(Cc2cccc(F)c2)s1 (stereo not drawn) [Example E42, 1-ethyl-3-[5-[(3-fluorophenyl)methyl]-1,3,4-thiadiazol-2-yl]-1-(3,3,3-trifluoro-2-hydroxy-2-methyl-propyl)urea] | 47.9 |
| CCN(C[C@H](C)O)C(=O)Nc1nnc(C(C)(C)c2cc(F)cc(F)c2)s1 [Example E59, 3-[5-[1-(3,5-difluorophenyl)-1-methyl-ethyl]-1,3,4-thiadiazol-2-yl]-1-ethyl-1-[(2S)-2-hydroxypropyl]urea] | 2510 |
| C[C@H](O)CN(C)C(=O)Nc1nnc(Cc2cc(F)cc(F)c2)s1 [Example E14] | 2510 |
| CC(C)C(=O)Nc1nnc(Cc2cccc(F)c2F)s1 [Example E04] | 1260 |
| CN(C[C@@H](O)C(F)(F)F)C(=O)Nc1nnc(Cc2cc(Cl)cc(Cl)c2)s1 [Example E45] | 288 |
| CC(CO)N(C)C(=O)Nc1nnc(Cc2cc(F)cc(F)c2)s1 (stereo not drawn) [Example E17] | 3980 |
| CCN(C[C@@H](O)C(F)(F)F)C(=O)Nc1nnc(Cc2cc(F)cc(Cl)c2)s1 [Example E48] | 14.1 |
| CN(CC(C)(O)C(F)(F)F)C(=O)Nc1nnc(Cc2cccc(F)c2)s1 (single isomer, unassigned) [Example E51, 3-[5-[(3-fluorophenyl)methyl]-1,3,4-thiadiazol-2-yl]-1-methyl-1-(3,3,3-trifluoro-2-hydroxy-2-methyl-propyl)urea] | 10000 |
| CCN(CC(C)(C)O)C(=O)Nc1nnc(Cc2cc(F)cc(Cl)c2)s1 [Example E41] | 16.6 |
| CCN(C[C@H](C)O)C(=O)Nc1nnc(Cc2cc(F)ccc2F)s1 [Example E12] | 2000 |
| CCN(C[C@@H](O)C(F)(F)F)C(=O)Nc1nnc(Cc2cccc(Cl)c2)s1 [Example E37] | 158 |
| CN(CC1CCOC1)C(=O)Nc1nnc(Cc2cc(F)cc(F)c2)s1 (stereo not drawn) [Example E27] | 6310 |
| CCN(C[C@@H](O)C(F)(F)F)C(=O)Nc1nnc(Cc2cccc(F)c2)s1 [Example E36] | 200 |
